Experimental data reported in patent US9365534B2, “Arylated camphenes, processes for their preparation and uses thereof” (Yissum Research Development Company of the Hebrew …, priority 2009, dated 2016).

Legend:
[1] = target: human CB1 receptor (Homo sapiens (Human), UniProt P21554); test: Membrane competition binding assay with [3H]-CP 55,940, CHO-CB1 membranes; settings: CHO-CB1 cellular membranes, 2.5 nM [3H]-CP 55,940; read-out: Competition Binding Assay CB1 Receptor Ki
Description: The cDNA clones for human HA-tagged CB1 and CB2 receptors were obtained from the Missouri S&T cDNA Resource Center (www.cdna.org) in cloning vector pcDNA3.1+. The vector containing the human CB2 receptor was transfected directly into CHO-KI cells obtained from ATCC. The HA-tagged human CB1 receptor sequence was subcloned into the pef4-V5-HisA vector with Kpn1 and Pme1 restriction enzymes and subsequently transfected into CHO-K1 cells. Cells were clonally isolated by limited dilution and screened by immunocytochemistry for expression of the HA tag.
Cells were maintained in DMEM/F12 media supplemented with 10% fetal bovine serum (FBS), 100 units/ml penicillin and 100 μg/ml streptomycin and 2 mM L-glutamine. Transfected cell lines were maintained with additional 150 ug/ml zeocin for pEF HA-CB1 transfected cells and 500 ug/ml G-418 for pcDNA HA-CB2 transfected cells (all reagents obtained from Invitrogen).
Cells were grown to confluence and harvested in ice cold phosphate buffered saline with 5 mM EDTA. Cells were spun at 200×g for 10 min and frozen at −80° C. until required. Cell pellets were thawed with cold 0.32 M sucrose and homogenised with a glass homogeniser. The homogenate was spun at 1000×g for 10 min at 4° C. and the supernatant spun in a Sorvall ultracentrifuge for 30 min at 100,000×g. The pellet was then washed in ice cold water and re-spun twice more. The final pellet was resuspended in 50 mM Tris pH 7.5, 0.5 mM EDTA. Protein concentration was determined using the Dc protein assay kit (BioRad, Hercules, Calif., USA).
Membranes (5-10 μg) were incubated with radioligand and a range of concentrations of test compounds in binding buffer (50 mM Tris pH 7.4, 5 mM MgCl2, 1 mM EDTA) with 0.5% (w/v) bovine serum albumin (BSA) (ICP Bio, New Zealand), at 30° C. for 60 min. Stock solutions of putative cannabinoid ligands were prepared in dimethyl sulfoxide to a concentration of 10 mM. Six different final concentrations of compounds were used ranging from 50 μM to 0.1 nM. […] Assays were terminated by addition of 2 ml ice cold binding buffer and filtration through GF/C filters (Whatman) pre-soaked in cold binding buffer, followed by two washes in the same buffer.
Radioactivity was determined by incubation of filters with Irgasafe scintillation fluid (PerkinElmer) and scintillation counting in a Wallac Trilux using Microbeta Trilux software. Data was analysed using the Prism 4.02 programme (GraphPad Software, San Deigo, Calif., USA).
All data was analyzed using Prism 4.02. For binding data the Ki was determined from IC50 values derived from competition binding data fitted with one site competition non-linear regression analysis by Prism 4.02 using the Kd values reported above.

[2] = system: closed head injury (CHI); test: Closed head injury (CHI) model, neurological severity score, Sabra mice; format: in vivo; settings: for most effective dose (recovery, ΔNSS): Sabra mice, i.p. 1 h after CHI, followed 21 days
Procedure: The study was conducted according to the guidelines of the Institutional Animal Care Committee of the Hebrew University. Male Sabra mice weighing 35 to 50 g were used in all experiments. Animals were kept under controlled light conditions with a 12 h/12 h light/dark cycle. Experimental closed head injury (CHI) was induced using a modified weight drop device developed in our laboratory as described previously (Chen et al., 1996). At 1 h after CHI, the functional status of the mice was evaluated according to a set of 10 neurobehavioral tasks, namely the neurological severity score (NSS). This score is based on the ability of the mice to perform 10 different tasks (Beni-Adani et al., 2001) that evaluate their motor ability, balance, and alertness. One point is given for failing to perform a task. […] A score of 10 reflects maximal neurologic impairment, and a decrease of NSS during the recovery period indicates partial recovery of function.
Data was analyzed using the Prism 4.02 programme (GraphPad Software, San Deigo, Calif., USA). The data are expressed as mean±SEM and statistical significance was assessed with one way analysis of variance (ANOVA) followed by a Dunnett's post-hoc analysis for TNF-α levels. Nonparametric NSS values were compared between the two groups at each time point.
In this study four groups of mice were subjected to CHI (n=10/group and control n=9), after which the following agents were administered: • Group 1 (Control): Vehicle only (ethanol:cremophor:saline at ratio of 1:1:18), 1 h after CHI. • Group 2: HU-910, 0.1 mg/kg, dissolved in vehicle (1:1:18 ethanol:cremophor:saline), i.p. 1 h after CHI. • Group 3: HU-910, 1.0 mg/kg, dissolved in vehicle (1:1:18 ethanol:cremophor:saline), i.p. 1 h after CHI. • Group 4: HU-910, 10.0 mg/kg, dissolved in vehicle (1:1:18 ethanol:cremophor:saline), i.p. 1 h after CHI.
In this study four groups of mice were subjected to CHI (n=9/group), after which the following agents were administered: • Group 1 (Control): Vehicle only (ethanol:cremophor:saline at ratio of 1:1:18), 1 h after CHI. • Group 2: HU-910, 10 mg/kg, dissolved in vehicle (1:1:18 ethanol:cremophor:saline), i.p. 1 h after CHI. • Group 3: Specific CB2 antagonist SR144528 (N-[(1S)-endo-1,3,3-trimethylbicyclo[2.2.1]heptan-2-yl]-5-(4-chloro-3-methylphenyl)-1-(4-methylbenzyl)pyrazole-3 carboxamide), (see M. Rinaldi-Carmona, et al. J. Pharmacol. Exp. Ther. 284 (1998) 644-650), 1 mg/kg, i.p. 1 h after CHI. • Group 4: Specific CB2 antagonist (SR144528, N-[(1S)-endo-1,3,3-trimethylbicyclo[2.2.1]heptan-2-yl]-5-(4-chloro-3-methylphenyl)-1-(4-methylbenzy)pyrazole-3 carboxamide), 1 mg/kg, i.p. 1 h after CHI and HU-910 10 mg/kg administered 10 min after administration of antagonist.
In this study four groups of mice were subjected to CHI (n=7-8/group), after which the following agents were administered: • Group 1 (Control): Vehicle only (Dimethyl Sulfoxide (DMSO): Tween 80: Saline at ratio of 1:1:18), i.p. 1 h after CHI. • Group 2: HU-910, 10 mg/kg, dissolved in Vehicle, i.p. 1 h after CHI. • Group 3: Specific CB2 antagonist/inverse agonist AM630 (6-Iodo-2-methyl-1-[2-(4-morpholinyl)ethyl]-1H-indol-3-yl](4-methoxyphenyl)methanone) (Ross et al. 1999)), dissolved in Vehicle, 1 mg/kg, i.p. 1 h after CHI and HU-910, dissolved in Vehicle, 10 mg/kg administered 10 min after administration of antagonist/inverse agonist. • Group 4: Specific CB2 antagonist/inverse agonist AM630 (6-Iodo-2-methyl-1-[2-(4-morpholinyl)ethyl]-1H-indol-3-yl](4-methoxyphenyl)methanone), dissolved in Vehicle, 1 mg/kg, i.p. 1 h after CHI

Chain of human CB1 receptor (P21554 whole entry): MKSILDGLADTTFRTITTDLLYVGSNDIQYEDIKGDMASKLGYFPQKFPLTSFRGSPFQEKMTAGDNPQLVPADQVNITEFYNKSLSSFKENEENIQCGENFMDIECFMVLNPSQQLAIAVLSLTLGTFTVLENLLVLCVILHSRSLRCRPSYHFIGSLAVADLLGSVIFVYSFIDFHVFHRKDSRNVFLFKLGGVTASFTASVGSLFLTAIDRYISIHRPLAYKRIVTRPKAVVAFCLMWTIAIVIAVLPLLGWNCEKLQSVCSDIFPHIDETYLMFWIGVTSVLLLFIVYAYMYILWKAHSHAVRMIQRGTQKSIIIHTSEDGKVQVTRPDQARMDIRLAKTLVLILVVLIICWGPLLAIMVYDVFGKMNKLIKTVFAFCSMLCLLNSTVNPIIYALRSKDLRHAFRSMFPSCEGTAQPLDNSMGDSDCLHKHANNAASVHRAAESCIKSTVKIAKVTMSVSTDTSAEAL

Compound | Ki [1] [nM] | beneficial effect on ΔNSS in the presence of AM630 ([2]; AM630 1 mg/kg i.p. 1 h after CHI, HU-910 10 mg/kg 10 min later, 1 h to 28 days) | extent of recovery ΔNSS=NSS(1 h)−NSS(t) ([2]; HU-910 10 mg/kg i.p. 1 h after CHI, days 5 and 7 post injury, vs vehicle or 0.1 and 1 mg/kg) | beneficial effect on ΔNSS in the presence of SR144528 ([2]; SR144528 1 mg/kg i.p. 1 h after CHI, HU-910 10 mg/kg 10 min later) | most effective dose (recovery, ΔNSS) [2] [mg/kg] | recovery, Neurological Severity Score (ΔNSS) ([2]; HU-914 5 mg/kg i.p. 1 h after CHI, starting at 3 days post injury, vs vehicle or 10 and 20 mg/kg) | recovery ΔNSS in the presence of SR144528 ([2]; SR144528 1 mg/kg i.p. 1 h after CHI, HU-914 5 mg/kg 10 min later, 24 h to 28 day)
CCCCCCC(C)(C)c1cc(OC)c(C2=C[C@H]3CC[C@]2(CO)C3(C)C)c(OC)c1 [HU-910, (1S,4R)-(2-(2,6-dimethoxy-4-(2-methyloctan-2-yl)phenyl)-7,7-dimethylbicyclo[2.2.1]hept-2-en-1-yl)methanol] | 1370 | reduced to a similar extent | significant greater recovery | reduced to a similar extent | 10 |  | 
CCCCCCC(C)(C)c1cc(OC)c(C2=C[C@H]3CC[C@]2(C(=O)O)C3(C)C)c(OC)c1 [HU-914, (1S,4R)-2-(2,6-dimethoxy-4-(2-methyloctan-2-yl)phenyl)-7,7-dimethylbicyclo[2.2.1]hept-2-ene-1-carboxylic acid] | > 50000 |  |  |  | 5 | significant greater recovery | abolished and reduced to a similar extent as in the control group
